Source: patent publication EP4471049A1 (Zealand Pharma A/S, priority 2023, dated 2024)
*1 amine or outer side, *2 acyl side, *3 side chain or, on linkers, in order; H or OH if unused. Where a SMILES comes first, the peptide text is derived from it. Bridges are numbered along the chain shown (N, C = ends). Where no end group is shown, it is not given here. [ ]: non-standard residue; d: D form. The star is where a group is joined. 4‑Aminomethyl‑phenylacetyl = 4-aminomethyl-phenylacetyl unit, its amine closes the lactam, O=C(Cc1ccc(CN[*:1])cc1)[*:2]; dGly‑CF3 = O=C([C@H](N[*:1])C(F)(F)F)[*:2]; 2Nal = N[C@@H](Cc1ccc2ccccc2c1)C(=O)O; AEF = NCCOc1ccc(C[C@H](N)C(=O)O)cc1; X1 = O=C(Cc1ccc(CN[*:1])cc1)[*:2]; 3Pal = N[C@@H](Cc1cccnc1)C(=O)O; αMeL = CC(C)C[C@](C)(N)C(=O)O; Pyrrolidide = C1CCN(*)C1; Dab = NCC[C@H](N)C(=O)O

T1: human IL-23R (Homo sapiens, UniProt Q5VWK5)
T1 sequence (Q5VWK5 22-629): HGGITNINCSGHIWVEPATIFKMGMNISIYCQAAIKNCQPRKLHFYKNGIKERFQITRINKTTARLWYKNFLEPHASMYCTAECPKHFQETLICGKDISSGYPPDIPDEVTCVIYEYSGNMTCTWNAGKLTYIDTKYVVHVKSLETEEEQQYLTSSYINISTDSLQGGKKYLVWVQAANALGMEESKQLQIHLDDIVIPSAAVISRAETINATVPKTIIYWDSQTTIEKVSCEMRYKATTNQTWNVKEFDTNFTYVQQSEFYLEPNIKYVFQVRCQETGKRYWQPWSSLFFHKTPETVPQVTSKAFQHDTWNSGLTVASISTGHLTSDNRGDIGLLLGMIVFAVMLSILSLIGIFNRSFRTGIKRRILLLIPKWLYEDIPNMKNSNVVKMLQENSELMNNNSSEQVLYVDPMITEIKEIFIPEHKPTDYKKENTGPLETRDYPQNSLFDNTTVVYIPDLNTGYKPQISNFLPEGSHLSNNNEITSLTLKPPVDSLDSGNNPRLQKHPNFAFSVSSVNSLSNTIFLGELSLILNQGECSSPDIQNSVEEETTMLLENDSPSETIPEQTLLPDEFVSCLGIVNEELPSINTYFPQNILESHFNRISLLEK

T2: human IL-23R endogenously expressed on DB cells (human, UniProt Q5VWK5 24-629)
T2 sequence (looked up): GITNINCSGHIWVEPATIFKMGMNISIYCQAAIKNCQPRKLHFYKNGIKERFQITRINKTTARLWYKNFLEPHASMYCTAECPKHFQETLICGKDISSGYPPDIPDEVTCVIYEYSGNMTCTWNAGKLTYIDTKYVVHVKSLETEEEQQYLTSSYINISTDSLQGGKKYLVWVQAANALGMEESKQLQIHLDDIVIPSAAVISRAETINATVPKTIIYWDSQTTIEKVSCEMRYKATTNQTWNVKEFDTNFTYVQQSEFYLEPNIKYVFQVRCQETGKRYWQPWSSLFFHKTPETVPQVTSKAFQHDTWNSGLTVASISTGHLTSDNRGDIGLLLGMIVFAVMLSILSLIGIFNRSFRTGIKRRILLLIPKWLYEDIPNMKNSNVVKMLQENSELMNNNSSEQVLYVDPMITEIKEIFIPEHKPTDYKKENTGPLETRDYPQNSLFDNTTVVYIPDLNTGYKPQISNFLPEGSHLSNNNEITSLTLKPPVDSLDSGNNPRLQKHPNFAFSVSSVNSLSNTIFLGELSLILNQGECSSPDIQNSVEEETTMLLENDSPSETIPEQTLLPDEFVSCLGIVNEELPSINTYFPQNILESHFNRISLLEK


Key:
[1] = target: T1, human IL-23R; test: biochemical; details: for Emax: read-out: % displacement (hIL-23R binding)
Description: The compound binding affinity for IL-23R was estimated by the ability of compounds to displace a fluorophore-labelled reference compound from the human IL-23R. The assay principle relies on Bioluminescence Resonance Energy Transfer (BRET) between a fluorophore-labelled reference compound binding to the IL-23R part of a fusion protein consisting of the IL-23R fused to a Nanoluc luciferase enzyme (Nanoluc). The Nanoluc is placed in the N-terminus in close proximity to the binding domain of the ligand. Upon close proximity between the fluorophore of the fluorophore-labelled compound and the Nanoluc of the fusion protein, bioluminescence energy generated from conversion of a Nanoluc substrate, is transferred to the fluorophore resulting in an increase in BRET. In presence of an unlabelled compound, the unlabelled compound displaces the fluorophore-labelled peptide from its binding site resulting in a decrease in BRET. The concentration for which half of the fluorophore-labelled peptide is displaced by the unlabelled compound depends on the affinity of the compound for the IL-23R, and is termed the IC50 concentration.
The plasmid also contained a gene to confer resistance for the antibiotic hygromycin. A cell line stably expressing the Nluc-IL23R fusion protein was generated by transfection of HEK293 cells with the expression plasmid and selected with hygromycin for 3 weeks in Growth medium consisting of DMEM w/ Glutamax-I containing, 10% V/V FBS, 1% V/V P/S, 1 mM Sodium Pyruvate, and 1X NEAA, and 0.3 mg/mL hygromycin. The remaining cells were propagated and considered a stable expressing Nluc-IL23R fusion protein pool clone.
Cells expressing the Nluc-IL23R fusion protein were expanded in Growth medium and membranes prepared by homogenization of a cell pellet from 18 T175 flasks (4 °C in subsequent steps). The cell pellet was lysed Tris 10 mM, 7.5, 1 mM EDTA and protease inhibitors (Complete, Roche) and homogenized using a 15 mL glass-dounce by 50 strokes. The homogenate was spun at spin @1500 rpm for 10 min, the supernatant transferred to SV-34 tubes and spun at 40000g for 20 min at 4 °C to pellet the crude membranes. The supernatant was then removed, the pellet resuspended in 5 mL buffer containing 50 mM HEPES pH 7.4, 5 mM EGTA, and 5 mM MgCl2, and homogenized. Aliquots of the resuspended and homogenized membranes containing the Nluc-IL23R fusion protein were stored at -80 °C until use.
The plate was sealed with light impermeable plate seals, and incubated on an orbital shaker 400 rpm for 2 hours at room temperature. To determine the BRET ratio, the plate seal was removed and 25 µL of the Nanoluc substrate (Promega N1572) diluted 1:500 was added to each well and incubated for 1-2 minutes on an orbital shaker at 400 rpm. […] The BRET ratio was calculated as the fluorescence from the TAMRA/nanoluc bioluminescence.
Compound potency (IC50) and maximal displacement (% displacement) were estimated by computer-aided curve fitting using a 4-parameter logistic (4PL) non-linear model. […]
In this application, the inventors provide the data as IC50 values.

[2] = target: T2, human IL-23R endogenously expressed on …; test: cell-based or functional assay

Molecule	% displacement (hIL-23R binding) [1] [%]	IC50 [1] [nM]	Emax [1] [%]	hIL-23 (pSTAT3) antagonist % inhibition [2] [%]	other results
CNC(=O)[C@H](Cc1cccnc1)NC(=O)[C@H](CCN)NC(=O)[C@@H]1CCC(=O)NCc2ccc(cc2)CC(=O)N[C@@H](C)C(=O)N[C@H]2CCC(=O)NCC[C@H](NC(=O)[C@H](CCC(N)=O)NC(=O)[C@H](Cc3c[nH]c4ccccc34)NC2=O)C(=O)N[C@@H](Cc2ccc(OCCN)cc2)C(=O)N[C@@H](CC2CC2)C(=O)NC(C)(C)C(=O)N1 [Compound 42, [4-Aminomethyl-phenylacetyl](1c)*AE(2c)WQ[Dab](2c)[Y(2-aminoethoxy)][Cyclopropyl-Ala][Aib]E(1c)[Dab][3-(3-Pyridyl)-Ala]-[NHMe]]	100				
CNC(=O)[C@H](Cc1cccnc1)NC(=O)[C@H](CCN)NC(=O)[C@@H]1CCC(=O)NCc2ccc(cc2)CC(=O)N[C@@H](C)C(=O)N[C@H]2CCC(=O)NCC[C@H](NC(=O)[C@H](CCC(N)=O)NC(=O)[C@H](Cc3c[nH]c4ccccc34)NC2=O)C(=O)N[C@@H](Cc2ccc(OCCN)cc2)C(=O)N[C@@H](Cc2c[nH]c3ncccc23)C(=O)NC(C)(C)C(=O)N1 [Compound 44, [4-Aminomethyl-phenylacetyl](1c)*AE(2c)WQ[Dab](2c)[Y(2-aminoethoxy)][7-AzaTrp][Aib]E(1c)[Dab][3-(3-Pyridyl)-Ala]-[NHMe]]		0.27	100		
CNC(=O)[C@H](Cc1cccnc1)NC(=O)[C@H](CCN)NC(=O)[C@@H]1CCC(=O)NCc2ccc(cc2)CC(=O)N[C@@H](C)C(=O)N[C@H]2CCC(=O)NCC[C@H](NC(=O)[C@H](CCC(N)=O)NC(=O)[C@H](Cc3c[nH]c4ccccc34)NC2=O)C(=O)N[C@@H](Cc2c[nH]c3ccccc23)CC(=O)N[C@@H](Cc2ccc3ccccc3c2)C(=O)NC(C)(C)C(=O)N1 [Compound 45, [4-Aminomethyl-phenylacetyl](1c)*AE(2c)WQ[Dab](2c)[beta-hTrp][2-Nal][Aib]E(1c)[Dab][3-(3-Pyridyl)-Ala]-[NHMe]]	104	4.2			
CNC(=O)[C@H](Cc1cccnc1)NC(=O)[C@H](CCN)NC(=O)[C@@H]1CCC(=O)NCc2ccc(cc2)CC(=O)N[C@@H](C)C(=O)N[C@H]2CCC(=O)NCC[C@H](NC(=O)[C@H](CCC(N)=O)NC(=O)[C@H](Cc3c[nH]c4ccccc34)NC2=O)C(=O)N[C@@H](Cc2ccc(OCCN)cc2)C(=O)N[C@@H](Cc2c[nH]c3ccccc23)CC(=O)NC(C)(C)C(=O)N1 [Compound 46, [4-Aminomethyl-phenylacetyl](1c)*AE(2c)WQ[Dab](2c)[Y(2-aminoethoxy)][beta-hTrp][Aib]E(1c)[Dab][3-(3-Pyridyl)-Ala]-[NHMe]]		57	101		
CNC(=O)[C@H](Cc1cccnc1)NC(=O)[C@H](CCN)NC(=O)[C@@H]1CCC(=O)NCc2ccc(cc2)CC(=O)N[C@@H](C)C(=O)N[C@H]2CCC(=O)NCC[C@H](NC(=O)[C@H](CCC(N)=O)NC(=O)[C@H](Cc3c[nH]c4ccccc34)NC2=O)C(=O)N[C@@H](Cc2c[nH]c3c(F)cccc23)C(=O)N[C@@H](Cc2ccc3ccccc3c2)C(=O)NC(C)(C)C(=O)N1 [Compound 47, [4-Aminomethyl-phenylacetyl](1c)*AE(2c)WQ[Dab](2c)[7-F-Trp][2-Nal][Aib]E(1c)[Dab][3-(3-Pyridyl)-Ala]-[NHMe]]			103		
CC(C)C[C@]1(C)NC(=O)[C@H](Cc2ccc3ccccc3c2)NC(=O)[C@H](Cc2ccc(OCCN)cc2)NC(=O)[C@@H]2CCNC(=O)CC[C@H](NC(=O)[C@H](CO)NC(=O)Cc3ccc(cc3)CNC(=O)CC[C@@H](C(=O)N[C@@H](CCN)C(N)=O)NC1=O)C(=O)N[C@@H](Cc1c[nH]c3ccccc13)C(=O)N[C@@H](CCC(=O)N1CCCC1)C(=O)N2 [Ref 146, [4-Aminomethyl-phenylacetyl](1c)*SE(2c)W[Q(pyrrolidin)][Dab](2c)[Y(2-aminoethoxy)][2-Nal][2-Me-Leu]E(1c)[Dab]-[NH2], reference compound] ([X1]SEWE(Pyrrolidide)[Dab][AEF][2Nal][αMeL]E[Dab]-NH2; lactam 3-6, N-10)	105				
[4‑Aminomethyl‑phenylacetyl]SEWQ[Dab][AEF][2Nal][αMeL]E[dGly‑CF3][3Pal]-NH2 (lactam (positions not given here); lactam 3-6; not fully specified (bridges)) [Compound 16]				97	hIL-23 (pSTAT3) antagonist IC50 [2]: 1.4 nM
[4‑Aminomethyl‑phenylacetyl]SEWQ[Dab][AEF][2Nal][αMeL]E[Dab]-NH2 (lactam (positions not given here); lactam 3-6; not fully specified (bridges); printed as [4-Aminomethyl-phenylacetyl](1c)*SE(2c)WQ[Dab](2c)[Y(2-aminoethoxy)][2-Nal][2-Me-Leu]E(1c)[Dab]-[NH2]) [Ref 125]				98	hIL-23 (pSTAT3) antagonist IC50 [2]: 21 nM
H-DCSCWQCWWLCR-NH2 (bridge 4-7, 2-11; not fully specified (bridges)) [I3 (isomer 3)]				100	
